Converted amounts (≈) assume the structure as drawn.
System: Pasteurella multocida
Assay: minimum inhibitory concentration (MIC)
Description: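 Broth microdilution MIC (Sensititre BOPO7F bovine plate, CLSI methods) of 19 antimicrobials against field isolates of P. multocida, M. haemolytica, H. somni (deep nasopharyngeal swabs) and E. coli, Enterococcus spp. (rectal swabs) from weaned dairy heifers. Incubation 16-24 h at 35 C. MIC is the lowest concentration preventing visible growth. Values with <= or > lie at the tested range limits. Trimethoprim-sulfamethoxazole is given as the trimethoprim component of a 1:19 mixture.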

CO/N=C(\C(=O)N[C@@H]1C(=O)N2C(C(=O)O)=C(CSC(=O)c3ccco3)CS[C@H]12)c1csc(N)n1 [Ceftiofur]
Settings	minimum inhibitory concentration [µg/mL]
isolate (source animal id): 10	≤ 0.25
isolate (source animal id): 11	≤ 0.25
isolate (source animal id): 12	≤ 0.25
isolate (source animal id): 19	≤ 0.25
isolate (source animal id): 23	≤ 0.25
isolate (source animal id): 26	≤ 0.25
isolate (source animal id): 98	≤ 0.25
isolate (source animal id): 104	≤ 0.25
isolate (source animal id): 115	≤ 0.25
isolate (source animal id): 117	≤ 0.25
isolate (source animal id): 118	≤ 0.25
isolate (source animal id): 121	≤ 0.25
isolate (source animal id): 124	≤ 0.25
isolate (source animal id): 125	≤ 0.25
isolate (source animal id): 128	≤ 0.25
isolate (source animal id): 131	≤ 0.25
isolate (source animal id): 135	≤ 0.25
isolate (source animal id): 136	≤ 0.25
isolate (source animal id): 140	≤ 0.25
isolate (source animal id): 144	≤ 0.25
isolate (source animal id): 146	≤ 0.25
isolate (source animal id): 150	≤ 0.25
isolate (source animal id): 151	≤ 0.25
isolate (source animal id): 153	≤ 0.25
isolate (source animal id): 155	≤ 0.25
isolate (source animal id): 157	≤ 0.25
isolate (source animal id): 160	≤ 0.25
isolate (source animal id): 164	≤ 0.25
isolate (source animal id): 165	≤ 0.25
isolate (source animal id): 167	≤ 0.25
isolate (source animal id): 168	≤ 0.25
isolate (source animal id): 169	≤ 0.25
isolate (source animal id): 170	≤ 0.25
isolate (source animal id): 171	≤ 0.25
isolate (source animal id): 172	≤ 0.25
isolate (source animal id): 173	≤ 0.25
isolate (source animal id): 174	≤ 0.25
isolate (source animal id): 175	1 (≈ 1.91 µM)
isolate (source animal id): 176	≤ 0.25
isolate (source animal id): 177	≤ 0.25
isolate (source animal id): 178	≤ 0.25
isolate (source animal id): 179	≤ 0.25
isolate (source animal id): 182	≤ 0.25
isolate (source animal id): 192	≤ 0.25
isolate (source animal id): 193	≤ 0.25
isolate (source animal id): 195	≤ 0.25
isolate (source animal id): 196	≤ 0.25
isolate (source animal id): 197	≤ 0.25
isolate (source animal id): 198	≤ 0.25
isolate (source animal id): 199	≤ 0.25
isolate (source animal id): 200	≤ 0.25
isolate (source animal id): 201	≤ 0.25
isolate (source animal id): 203	≤ 0.25
isolate (source animal id): 204	≤ 0.25
isolate (source animal id): 205	≤ 0.25
isolate (source animal id): 206	≤ 0.25
isolate (source animal id): 207	≤ 0.25
isolate (source animal id): 208	≤ 0.25
isolate (source animal id): 209	≤ 0.25
isolate (source animal id): 210	≤ 0.25
isolate (source animal id): 213	≤ 0.25
isolate (source animal id): 216	≤ 0.25
isolate (source animal id): 223	≤ 0.25
isolate (source animal id): 227	≤ 0.25
isolate (source animal id): 229	≤ 0.25
isolate (source animal id): 233	≤ 0.25
isolate (source animal id): 234	≤ 0.25
isolate (source animal id): 237	≤ 0.25
isolate (source animal id): 241	≤ 0.25
isolate (source animal id): 245	≤ 0.25
isolate (source animal id): 247	≤ 0.25
isolate (source animal id): 250	≤ 0.25
isolate (source animal id): 254	≤ 0.25
isolate (source animal id): 255	≤ 0.25
isolate (source animal id): 258	≤ 0.25
isolate (source animal id): 261	≤ 0.25
isolate (source animal id): 262	≤ 0.25
isolate (source animal id): 269	≤ 0.25
isolate (source animal id): 270	≤ 0.25
isolate (source animal id): 274	≤ 0.25
isolate (source animal id): 275	≤ 0.25
isolate (source animal id): 276	≤ 0.25
isolate (source animal id): 277	≤ 0.25
isolate (source animal id): 278	≤ 0.25
isolate (source animal id): 279	≤ 0.25
isolate (source animal id): 280	≤ 0.25
isolate (source animal id): 284	≤ 0.25
isolate (source animal id): 285	≤ 0.25
isolate (source animal id): 287	≤ 0.25
isolate (source animal id): 290	≤ 0.25
isolate (source animal id): 294	≤ 0.25
isolate (source animal id): 295	≤ 0.25
isolate (source animal id): 296	≤ 0.25
isolate (source animal id): 307	≤ 0.25
isolate (source animal id): 310	≤ 0.25
isolate (source animal id): 311	≤ 0.25
isolate (source animal id): 312	≤ 0.25
isolate (source animal id): 313	≤ 0.25
isolate (source animal id): 315	≤ 0.25
isolate (source animal id): 316	≤ 0.25

CCC[C@@H]1C[C@@H](C(=O)N[C@@H]([C@H]2O[C@H](SC)[C@H](O)[C@@H](O)[C@H]2O)[C@H](C)Cl)N(C)C1 [Clindamycin]
Settings	minimum inhibitory concentration [µg/mL]
isolate (source animal id): 10	> 16
isolate (source animal id): 11	> 16
isolate (source animal id): 12	> 16
isolate (source animal id): 19	> 16
isolate (source animal id): 23	> 16
isolate (source animal id): 26	> 16
isolate (source animal id): 98	> 16
isolate (source animal id): 104	> 16
isolate (source animal id): 115	> 16
isolate (source animal id): 117	> 16
isolate (source animal id): 118	> 16
isolate (source animal id): 121	> 16
isolate (source animal id): 124	> 16
isolate (source animal id): 125	> 16
isolate (source animal id): 128	> 16
isolate (source animal id): 131	> 16
isolate (source animal id): 135	> 16
isolate (source animal id): 136	> 16
isolate (source animal id): 140	> 16
isolate (source animal id): 144	> 16
isolate (source animal id): 146	> 16
isolate (source animal id): 150	> 16
isolate (source animal id): 151	> 16
isolate (source animal id): 153	> 16
isolate (source animal id): 155	> 16
isolate (source animal id): 157	> 16
isolate (source animal id): 160	> 16
isolate (source animal id): 164	> 16
isolate (source animal id): 165	> 16
isolate (source animal id): 167	> 16
isolate (source animal id): 168	> 16
isolate (source animal id): 169	> 16
isolate (source animal id): 170	> 16
isolate (source animal id): 171	> 16
isolate (source animal id): 172	> 16
isolate (source animal id): 173	> 16
isolate (source animal id): 174	> 16
isolate (source animal id): 175	> 16
isolate (source animal id): 176	> 16
isolate (source animal id): 177	> 16
isolate (source animal id): 178	> 16
isolate (source animal id): 179	> 16
isolate (source animal id): 182	> 16
isolate (source animal id): 192	> 16
isolate (source animal id): 193	> 16
isolate (source animal id): 195	8 (≈ 18.8 µM)
isolate (source animal id): 196	> 16
isolate (source animal id): 197	> 16
isolate (source animal id): 198	> 16
isolate (source animal id): 199	> 16
isolate (source animal id): 200	> 16
isolate (source animal id): 201	> 16
isolate (source animal id): 203	> 16
isolate (source animal id): 204	> 16
isolate (source animal id): 205	> 16
isolate (source animal id): 206	> 16
isolate (source animal id): 207	> 16
isolate (source animal id): 208	> 16
isolate (source animal id): 209	> 16
isolate (source animal id): 210	> 16
isolate (source animal id): 213	> 16
isolate (source animal id): 216	> 16
isolate (source animal id): 223	> 16
isolate (source animal id): 227	> 16
isolate (source animal id): 229	> 16
isolate (source animal id): 233	> 16
isolate (source animal id): 234	> 16
isolate (source animal id): 237	> 16
isolate (source animal id): 241	> 16
isolate (source animal id): 245	> 16
isolate (source animal id): 247	> 16
isolate (source animal id): 250	> 16
isolate (source animal id): 254	> 16
isolate (source animal id): 255	> 16
isolate (source animal id): 258	> 16
isolate (source animal id): 261	> 16
isolate (source animal id): 262	> 16
isolate (source animal id): 269	> 16
isolate (source animal id): 270	> 16
isolate (source animal id): 274	> 16
isolate (source animal id): 275	> 16
isolate (source animal id): 276	> 16
isolate (source animal id): 277	> 16
isolate (source animal id): 278	> 16
isolate (source animal id): 279	> 16
isolate (source animal id): 280	> 16
isolate (source animal id): 284	> 16
isolate (source animal id): 285	> 16
isolate (source animal id): 287	> 16
isolate (source animal id): 290	> 16
isolate (source animal id): 294	> 16
isolate (source animal id): 295	> 16
isolate (source animal id): 296	> 16
isolate (source animal id): 307	> 16
isolate (source animal id): 310	> 16
isolate (source animal id): 311	> 16
isolate (source animal id): 312	> 16
isolate (source animal id): 313	> 16
isolate (source animal id): 315	> 16
isolate (source animal id): 316	> 16
